Laboratory results taken from US10744087B2, “Method to slow ventricular rate” (InCarda Therapeutics, Inc., priority 2018, dated 2020).
Counter-ions that a name gives are not always drawn. Like-named read-outs stand apart in the source and are kept apart here.

What was measured:
[1] = system: new onset atrial fibrillation or flutter; conditions: esmolol-treated patients with new onset atrial fibrillation or flutter; cited from earlier work
[2] = system: pig models with induced atrial fibrillation; assay: Intratracheal nebivolol or metoprolol, alone or combined with flecainide, in pig models with induced atrial fibrillation (Example 6); format: in vivo, male Yorkshire pigs
Experimental: The investigations were conducted in male Yorkshire pigs. The animals were preanesthetized with telazol (4.7 mg/kg, intramuscular) and subsequently were further anesthetized using alpha-chloralose (80-mg/kg IV bolus followed by 24-mg/kg/h continuous IV infusion). The pigs were intubated and ventilated at a constant rate of 12 breaths/min and tidal volume of 400 ml per stroke.
(§1) The catheters were positioned under fluoroscopic control. Electrograms were recorded from a decapolar electrode catheter positioned in the LV. Mean arterial pressure (MAP) was continuously recorded from a femoral arterial sheath. LV blood pressure was continuously monitored from a pigtail catheter. A catheter was introduced into the pericardial space via the right atrial appendage for delivery of intrapericardial acetylcholine. Atrial pacing at 160 beats/min was accomplished by delivering electrical stimuli to the right atrial catheter electrodes. Electrograms were monitored using a Prucka CardioLab workstation (GE Medical Systems, Milwaukee Wis.) from atrial and ventricular sites. For intratracheal instillation of metoprolol solution or sterile water, a 5 Fr angiography catheter was introduced into the trachea via the endotracheal tube, extending ˜1 cm past the tube, and its tip was positioned under fluoroscopy at the tracheal carina level.
Metoprolol obtained in powder form was used to prepare a stock solution of 15.3 mg/ml by dissolving the drug in 100% dimethyl sulfoxide (DMSO). A volume was withdrawn from the stock solution to achieve a 2 mg/kg IT dose and was supplemented with sterile water to attain a 2 ml total volume for bolus injection.
For Nebivolol (racemic mixtures of d- and l-nebivolol), a stock solution of 25 mg/ml was prepared by dissolving the drug in 100% DMSO. The dose was 0.3 mg/kg for intratracheal instillation. The corresponding volume was withdrawn from the stock solution based on body weight of the pig, and the allocated volume was completed with sterile water to attain 2 ml total volume. The administration was made with a 5 cc syringe with 2 ml of 0.3 mg/kg nebivolol solution and 3 ml of air.
AF was induced with 1 mL of a 102.5 mM solution of acetylcholine bolus delivered through the pericardial catheter, followed by saline flush (2 mL). Burst pacing at a cycle length of 178 ms was performed at 1 minute after intrapericardial administration of ACh. After AF initiation, lavage was carried out with 20 mL of saline.
For the intratracheal instillation of metoprolol (0.2 mg/kg or 0.4 mg/kg), nebivolol (0.3 mg/kg), flecainide (0.75 mg/kg), or cocktail of metoprolol and flecainide (0.2 mg/kg and 0.75 mg/kg, respectively), the drug agent was administered in 2 mL total volume in a single “push” of 2-3 seconds, followed by 3 ml of air in a 5 ml syringe, via the […] Sterile water (2 ml) was used as a placebo for intratracheal instillation in the baseline AF. A washout period of 30 to 60 min was allowed between inductions of each occurrence of AF.
AF duration was compared starting at 2 min after AF was induced, when the IT instillation was administered. The average ventricular rate for each AF was obtained by the mean of six measurements of ventricular rate performed each 30 seconds between the IT delivery (sterile water or metoprolol instillation) and the AF conversion to sinus rhythm.
For the study of nebivolol, in 2 of the 4 animals that were tested, at 60 min following nebivolol administration, flecainide was administered to test the effect of combined use of nebivolol and flecainide. For the study of metoprolol, given that metoprolol can have a short half-life in vivo, the effect of combined use of metoprolol and flecainide was tested by giving a second IT dose of metoprolol-flecainide cocktail 60 min following the first IT dose of metoprolol in the animals.

[3] = cited from earlier work
animal models of AF = assay: Intratracheal co-delivery of metoprolol and flecainide in pig AF models (Example 7); format: in vivo, male Yorkshire pigs
Experimental: Experimental animal models of AF (male Yorkshire pigs), and study reagents (metoprolol and flecainide) were prepared according to similar procedures described in Examples 5 and 6. In this example, the animals received IT administration of either metoprolol alone (0.2 mg/kg or 0.4 mg/kg), a cocktail of metoprolol and flecainide (0.2 mg/kg and 0.75 mg/kg, respectively, or 0.4 mg/kg and 0.75 mg/kg, respectively), or flecainide alone (0.75 mg/kg).

atrial fibrillation = conditions: given in oral pills; several studies (Ferreira 1997 review); cited from earlier work
[4] = system: pig models of induced atrial fibrillation; assay: Left ventricular contractility (LV dP/dt) and mean arterial pressure before and after AF, atrial pacing 160 beats/min (Example 5); format: in vivo, male Yorkshire pigs; conditions: IT metoprolol 0.2 mg/kg
Experimental: as §1, with “level. AF duration was compared starting at 2 min after AF was induced, when the IT instillation was administered. The average ventricular rate for each AF was obtained by the mean of six measurements of ventricular rate performed each 30 seconds between the IT delivery (sterile water or metoprolol instillation) and the AF conversion to sinus rhythm. Contractility (LV dP/dt) and MAP were recorded during atrial pacing at 160 beats/min before AF was induced and after it was terminated. Statistical analyses were performed using the SAS system (version 9.4) to apply ANOVA with post-hoc Dunnett's test for each time point. Data are reported as means±SEM. Statistical significance was assumed at p<0.05.” for “level.”

[5] = system: pig models of induced atrial fibrillation; assay: Intratracheal metoprolol in pig model of acetylcholine/burst-pacing induced atrial fibrillation (Example 5): AF duration, PR interval, dominant frequency, ventricular rate; format: in vivo, male Yorkshire pigs; conditions: for reduction of ventricular rate during AF: IT metoprolol 0.2 mg/kg vs baseline AF with sterile water
Experimental: Experiments described herein (e.g., Examples 5-7) complied with the National Institutes of Health Guide for the Care and Use of Laboratory Animals as well as the Declaration of Helsinki. The protocol was approved by the institutional animal use committee of Beth Israel Deaconess Medical Center (Boston Mass.). The investigations were conducted in male Yorkshire pigs weighing 46±1.8 kg. The animals were preanesthetized with telazol (4.7 mg/kg, intramuscular) and subsequently were further anesthetized using alpha-chloralose (80-mg/kg IV bolus followed by 24-mg/kg/h continuous IV infusion). The pigs were intubated and ventilated at a constant rate of 12 breaths/min and tidal volume of 400 ml per stroke. The catheters were positioned under fluoroscopic control. Electrograms were recorded from a decapolar electrode catheter positioned in the LV. Mean arterial pressure (MAP) was continuously recorded from a femoral arterial sheath. LV blood pressure was continuously monitored from a pigtail catheter. A catheter was introduced into the pericardial space via the right atrial appendage for delivery of intrapericardial acetylcholine. Atrial pacing at 160 beats/min was accomplished by delivering electrical stimuli to the right atrial catheter electrodes. Electrograms were monitored using a Prucka CardioLab workstation (GE Medical Systems, Milwaukee Wis.) from atrial and ventricular sites. For intratracheal instillation of metoprolol solution or sterile water, a 5 Fr angiography catheter was introduced into the trachea via the endotracheal tube, extending ˜1 cm past the tube, and its tip was positioned under fluoroscopy at the tracheal carina level. Metoprolol solutions of 0.2 mg/kg for intratracheal instillation were prepared by dilution of stock solution of 15.3 mg/ml in saline, originally obtained from metoprolol in powder form by dilution in dimethyl sulfoxide (DMSO). Plasma samples were analyzed using a high-performance liquid chromatography tandem mass spectrometric assay at Climax Laboratories, Inc. (San Jose Calif.). AF was induced with 1 mL of a 102.5 mM solution of acetylcholine bolus delivered through the pericardial catheter, followed by saline flush (2 mL). Burst pacing at a cycle length of 178 ms was performed at 1 minute after intrapericardial administration of ACh. After AF initiation, lavage was carried out with 20 ml of saline. For the intratracheal instillation of metoprolol (2 ml of 0.2 mg/kg concentration followed by 3 ml of air in a 5 ml syringe), the agent was administered in a single “push” via the modified angiography catheter positioned in the endotracheal tube at the beginning of the inspiration phase after two minutes of consolidated atrial fibrillation. Sterile water (2 ml) was used as a placebo for intratracheal instillation in the baseline AF. A washout period of 30 to 60 min was allowed between inductions of each occurrence of AF. AF duration was compared starting at 2 min after AF was induced, when the IT instillation was administered. The average ventricular rate for each AF was obtained by the mean of six measurements of ventricular rate performed each 30 seconds between the IT delivery (sterile water or metoprolol instillation) and the AF conversion to sinus rhythm. Contractility (LV dP/dt) and MAP were recorded during atrial pacing at 160 beats/min before AF was induced and after it was terminated. Statistical analyses were performed using the SAS system (version 9.4) to apply ANOVA with post-hoc Dunnett's test for each time point. Data are reported as means±SEM. Statistical significance was assumed at p<0.05.

atrial arrhythmia = conditions: intravenous, 5 to 15 mg bolus doses; cited from earlier work
[6] = AF induced 30 min after IT nebivolol 0.3 mg/kg

In the case of `COC(=O)CCc1ccc(OCC(O)CNC(C)C)cc1` (centres unmarked) [esmolol], the “patients converted to sinus rhythm” value [1] is given as “about 50%”.

In the case of `OC(CNCC(O)C1CCc2cc(F)ccc2O1)C1CCc2cc(F)ccc2O1` (racemic) [nebivolol, 2,2′-Azanediylbis(1-(6-fluorochroman-2-yl)ethanol)], the “reduction in ventricular rate during AF” value [2, 6] is reported as “about 22%”, the “shortening of the AF duration” value [2, 6] is reported as “about 33%” and the “reduction in ventricular rate during AF” value ([2]; AF induced right after IT nebivolol 0.3 mg/kg) is reported as “about 10%”. The “shortening of the AF duration” value ([2]; IT nebivolol 0.3 mg/kg, administered right before the AF induction, vs placebo baseline AF) was “about 24%” and the water solubility ([3]; water) was “low water solubility”.

With `O=C(NCC1CCCCN1)c1cc(OCC(F)(F)F)ccc1OCC(F)(F)F` (centres unmarked) [flecainide] the “reduction in the average ventricular rate during AF” value (animal models of AF; IT 0.75 mg/kg flecainide alone) was “about 10%”.

In the case of `CC(C)NCC(O)c1ccc(NS(C)(=O)=O)cc1` (centres unmarked) [soltalol], the “efficacy for acute conversion of atrial fibrillation to normal sinus rhythm” value (atrial fibrillation) is listed as 8-49%.

In the case of `COCCc1ccc(OCC(O)CNC(C)C)cc1` (racemic) [metoprolol, (±) 1-(isopropylamino)-3-[p-(2-methoxyethyl)phenoxy]-2-propanol], the “reduction of ventricular rate during AF” value ([2]; AF 30 min after IT metoprolol 0.2 mg/kg) is reported as “moderate”, the “shortening of the AF duration” value ([2]; AF induced 30 min after IT metoprolol 0.2 mg/kg) is reported as “about 36%” and the “shortening of the AF duration” value ([2]; AF induced right after IT metoprolol 0.2 mg/kg alone, vs placebo baseline AF) is reported as “about 28%”. The “reduction in ventricular rate during AF” value ([2]; AF induced right after IT metoprolol 0.2 mg/kg, vs baseline AF) was “about 13%”, the “MAP after AF” value ([4]; before AF 125±4.3, p=0.26, pacing 160 beats/min) was 118±4.0 and the “contractility (LV dP/dt) after AF conversion” value ([4]; before AF 2337±252.7, pacing 160 beats/min) was 1951±277.9. The “change in MAP” value ([4]; before vs after AF) was “no significant changes”, the “reduction in contractility (LV dP/dt) after conversion” value ([4]; pacing 160 beats/min, p=0.006, not different from AF baseline reduction (p=0.85)) was 17.5±4.0% and the “occurrence of atrial flutter during conversion” value ([5]; IT metoprolol 0.2 mg/kg) was “In none of the animals did atrial flutter occur”. For the same compound, the “reduction of ventricular rate during AF” value [5] was 12±2.6%, the “reduction of ventricular rate during AF” value ([5]; p=0.007) was 32 beats/min and the “reduction of AF dominant frequency” value ([5]; IT metoprolol 0.2 mg/kg vs baseline AF, p=0.04) was 31%. For the same compound, the “shortening of the AF duration” value ([5]; IT metoprolol 0.2 mg/kg vs placebo baseline AF (sterile water IT), p=0.018) was 20.4±4.9%, the AF dominant frequency ([5]; IT metoprolol 0.2 mg/kg, baseline AF 8.7±0.94) was 6±1.1 Hz and the “ventricular rate during AF” value ([5]; IT metoprolol 0.2 mg/kg, baseline AF 272±13.7) was 240±12.6 beats/min. The AF duration ([5]; IT metoprolol 0.2 mg/kg, placebo baseline 10.3±2.0, mean±SEM) was 8.0 ± 1.5 min, the PR interval ([5]; metoprolol 0.2 mg/kg bolus IT, from 174±11.2, p=0.07) was 182 ± 11.4 ms and the “increase in PR interval” value ([5]; metoprolol 0.2 mg/kg bolus IT, trend, p=0.07) was 4%. For the same compound, the “conversion rate of atrial arrhythmia” value (atrial arrhythmia) was 13%, the “patients with rate reduced at least 25% or to less than 100 bpm” value (atrial arrhythmia) was 68% and the “reduction in the AF duration” value (animal models of AF; IT 0.2 mg/kg metoprolol alone) was “about 20%”. For the same compound, the “reduction in the average ventricular rate during the AF conversion” value (animal models of AF; IT 0.2 mg/kg metoprolol alone) was “about 10%”, the “reduction in the AF duration” value (animal models of AF; IT 0.4 mg/kg metoprolol alone) was “about 27%” and the “reduction in the average ventricular rate during the AF conversion” value (animal models of AF; IT 0.4 mg/kg metoprolol alone) was “about 10%”.

In the case of `OC(CNCC(O)C1CCc2cc(F)ccc2O1)C1CCc2cc(F)ccc2O1` (centres unmarked) [Nebivolol hydrochloride], the solubility ([3]; in ethanol, propylene glycol, and polyethylene glycol) is given as “sparingly soluble”, the solubility ([3]; in hexane, dichloromethane, and methylbenzene) is given as “very slightly soluble” and the solubility ([3]; in methanol, dimethylsulfoxide, and N,N-dimethylformamide) is given as “soluble”.
